According to patent publication US12655116B2, “Substituted isophthalic acid diamides” (Bayer Aktiengesellschaft, priority 2020, dated 2026):

Legend:
[1] = test system: ALOMY; test: Pre-emergence herbicidal action against ALOMY; assay type: in vivo, Alopecurus myosuroides; conditions: 80 g/ha, pre-emergence, scored visually after 3 weeks vs untreated controls (100% = plants have died, 0% = like control plants)
Outline: (§1)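 Herbicidal effect was assessed 3 weeks after treatment by visual comparison with untreated controls, 100% denoting dead plants. Aqueous WP or EC preparations had been applied at 600 to 800 l/ha with 0.2% wetting agent to the soil covering freshly sown seeds.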

[2] = test system: AMARE; test: Pre-emergence herbicidal action against AMARE; assay type: in vivo, Amaranthus retroflexus
Outline: as §1

[3] = test system: ECHCG; test: Pre-emergence herbicidal action against ECHCG; assay type: in vivo, Echinochloa crus-galli
Outline: as §1

[4] = test system: MATIN; test: Pre-emergence herbicidal action against MATIN; assay type: in vivo, Matricaria inodora
Outline: as §1

[5] = test system: SETVI; test: Pre-emergence herbicidal action against SETVI; assay type: in vivo, Setaria viridis
Outline: as §1

[6] = test system: VIOTR; test: Pre-emergence herbicidal action against VIOTR; assay type: in vivo, Viola tricolor
Outline: as §1

[7] = test system: DIGSA; test: Pre-emergence herbicidal action against DIGSA; assay type: in vivo, Digitaria sanguinalis
Outline: as §1

[8] = test system: ECHCG; test: Post-emergence herbicidal action against ECHCG; assay type: in vivo, Echinochloa crus-galli
Outline: (§2)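 Herbicidal effect was scored visually in percent after about 3 weeks in the greenhouse. Plants had been raised in sandy loam and treated post-emergence at the one-leaf stage with formulated compound at 600 to 800 l/ha water plus 0.2% wetting agent.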

[9] = test system: PHBPU; test: Post-emergence herbicidal action against PHBPU; assay type: in vivo, Pharbitis purpurea
Outline: as §2

[10] = test system: VERPE; test: Post-emergence herbicidal action against VERPE; assay type: in vivo, Veronica persica; conditions: 20 g/ha
Protocol: (§3) Seeds of monocotyledonous and dicotyledonous weed and crop plants are laid out in sandy loam soil in wood-fiber pots, covered with soil and cultivated in a greenhouse under good growth conditions. 2 to 3 weeks after sowing, the test plants are treated at the one-leaf stage. The compounds of the invention, formulated in the form of wettable powders (WP) or as emulsion concentrates (EC), are then sprayed onto the green parts of the plants in the form of an aqueous suspension or emulsion at a water application rate equivalent to 600 to 800 l/ha, with addition of 0.2% wetting agent. After the test plants have been left to stand in the greenhouse under optimal growth conditions for about 3 weeks, the action of the preparations is assessed visually in comparison to untreated controls (herbicidal action in percent (%): 100% activity=the plants have died, 0% activity=like control plants). […] The tables below illustrate, in an illustrative manner, the post-emergence herbicidal action of the compounds of the invention, the herbicidal activity being stated in percent.

[11] = test system: VIOTR; test: Post-emergence herbicidal action against VIOTR; assay type: in vivo, Viola tricolor; conditions: 20 g/ha
Protocol: as §3

[12] = test system: ABUTH; test: Pre-emergence herbicidal action against ABUTH; assay type: in vivo, Abutilon theophrasti; conditions: for Pre-emergence action against ABUTH (herbicidal activity): 80 g/ha, scored visually after 3 weeks vs untreated controls (100% = plants have died, 0% = like control plants); for Pre-emergence action against ABUTH (herbicidal activity in percent): dosage 20 g/ha, scored visually after 3 weeks vs untreated controls, 100% = plants have died, 0% = like control plants
Outline: as §1

[13] = test system: ALOMY; test: Post-emergence herbicidal action against ALOMY; assay type: in vivo, Alopecurus myosuroides; conditions: dosage 20 g/ha, visual assessment about 3 weeks after treatment vs untreated controls
Protocol: as §3

[14] = test system: AMARE; test: Post-emergence herbicidal action against AMARE; assay type: in vivo, Amaranthus retroflexus; conditions: 20 g/ha, visual assessment about 3 weeks after treatment, 100% = plants have died, 0% = like control plants
Outline: as §2

[15] = test system: VERPE; test: Pre-emergence herbicidal action against VERPE; assay type: in vivo, Veronica persica; conditions: dosage 80 g/ha
Excerpt: (§4) Seeds of monocotyledonous and dicotyledonous weed plants and crop plants are laid out in sandy loam soil in wood-fiber pots and covered with soil. The compounds of the invention, formulated in the form of wettable powders (WP) or as emulsion concentrates (EC), are then applied to the surface of the covering soil in the form of an aqueous suspension or emulsion at a water application rate equivalent to 600 to 800 l/ha, with addition of 0.2% wetting agent. After the treatment, the pots are placed in a greenhouse and kept under good growth conditions for the trial plants. The damage to the test plants is scored visually after a test period of 3 weeks by comparison with untreated controls (herbicidal activity in percent (%): 100% activity=the plants have died, 0% activity=like control plants). […] The tables below illustrate, in an illustrative manner, the post-emergence herbicidal action of the compounds of the invention, the herbicidal activity being stated in percent.

[16] = test system: ABUTH; test: Post-emergence herbicidal action against ABUTH; assay type: in vivo, Abutilon theophrasti; conditions: visual assessment about 3 weeks after treatment vs untreated controls
Outline: as §2

[17] = test system: AVEFA; test: Pre-emergence herbicidal action against AVEFA; assay type: in vivo, Avena fatua; conditions: 80 g/ha, pre-emergence
Excerpt: as §4

[18] = test system: MATIN; test: Post-emergence herbicidal action against MATIN; assay type: in vivo, Matricaria inodora; conditions: dosage 20 g/ha
Protocol: as §3

[19] = test system: SETVI; test: Post-emergence herbicidal action against SETVI; assay type: in vivo, Setaria viridis; conditions: dosage 20 g/ha
Outline: as §2

[20] = test system: DIGSA; test: Post-emergence herbicidal action against DIGSA; assay type: in vivo, Digitaria sanguinalis; conditions: for Post-emergence action against DIGSA: 20 g/ha
Protocol: as §3

[21] = 20 g/ha, scored visually after 3 weeks vs untreated controls, 100% = plants have died, 0% = like control plants
[22] = 80 g/ha, scored visually after 3 weeks vs untreated controls (100% = plants have died, 0% = like control plants)

Row | SMILES | Pre-emergence action against ALOMY (herbicidal activity) [1] | Pre-emergence action against AMARE in % [2, 21] | Pre-emergence action against AMARE in % [2, 22] | Pre-emergence action against ECHCG in % ([3]; 80 g/ha) | Pre-emergence action against MATIN in % ([4]; dosage 80 g/ha) | Pre-emergence action against SETVI in % ([5]; dosage 80 g/ha) | Pre-emergence action against VIOTR in % ([6]; dosage 80 g/ha) | Pre-emergence action against DIGSA in % ([7]; dosage 80 g/ha) | Post-emergence action against ECHCG in % ([8]; dosage 20 g/ha) | Post-emergence action against PHBPU in % ([9]; dosage 20 g/ha) | Post-emergence action against VERPE in % [10] | Pre-emergence action against ABUTH (herbicidal activity) [12] | Post-emergence action against ALOMY in % [13] | Post-emergence action at 20 g/ha against AMARE in % [14] | Pre-emergence action against ABUTH (herbicidal activity in percent) [12] | Pre-emergence action against MATIN in % ([4]; dosage 20 g/ha) | Post-emergence action against ABUTH in % ([16]; dosage 20 g/ha) | Post-emergence action against MATIN in % [18] | Post-emergence action against SETVI in % [19] | also measured
1 | Cc1c(C(=O)Nc2nnnn2C)ccc(C(F)(F)F)c1C(=O)NCC1CCCO1 (centres unmarked) [Example 1-37] | 100% | 100% | 100% | 80% | 90% | 100% | 100% | 100% | 80% | 80% | 80% | – | – | – | – | – | – | – | – | Pre-emergence action against SETVI in % ([5]; dosage 20 g/ha): 90%; Pre-emergence action against DIGSA in % ([7]; dosage 20 g/ha): 80%; Post-emergence action against ECHCG in % ([8]; dosage 5 g/ha): 80%; Post-emergence action against VIOTR in % [11]: 80%
2 | CN(C)C(=O)CNC(=O)c1c(C(F)F)ccc(C(=O)Nc2nnnn2C)c1Cl [Example 1-160] | – | 100% | 100% | – | 80% | – | 80% | – | – | – | – | 80% | 80% | 100% | – | – | – | – | – | –
3 | CCn1nnnc1NC(=O)c1ccc(C(F)(F)F)c(C(=O)NCC#N)c1C [Example 2-36] | – | 100% | 100% | – | 90% | – | 100% | 90% | – | – | – | 100% | 90% | 90% | 90% | – | – | – | – | –
4 | CCn1nnnc1NC(=O)c1ccc(C(F)(F)F)c(C(=O)NCC(=O)N(C)C)c1Cl [Example 2-142] | – | – | 100% | – | 100% | – | 100% | – | – | – | – | – | 80% | 100% | – | 80% | – | – | – | –
5 | CCn1nnnc1NC(=O)c1ccc(C(F)F)c(C(=O)NCC(=O)N(C)C)c1Cl [Example 2-160] | – | 100% | 100% | – | 90% | – | 100% | – | – | – | – | 90% | 80% | 100% | – | – | 90% | – | – | Pre-emergence action against VERPE in % [15]: 80%
6 | CCn1nnnc1NC(=O)c1ccc(C(F)(F)F)c(C(=O)NCC(F)(F)F)c1Br [Example 2-211] | 90% | 100% | 100% | 90% | 100% | 100% | 80% | – | 80% | 80% | – | 100% | 80% | 90% | 100% | 90% | 80% | 80% | 90% | Pre-emergence action against AVEFA in % [17]: 80%; Post-emergence action against ABUTH in % ([16]; dosage 5 g/ha): 80%; Post-emergence action against PHBPU in % ([9]; dosage 5 g/ha): 80%; Post-emergence action against DIGSA [20]: 80%
7 | CCNC(=O)c1c(OC)ccc(C(=O)Nc2nnnn2CC)c1Cl [Example 2-353] | 90% | 100% | 100% | – | 100% | – | 100% | – | – | 80% | 100% | 100% | – | 100% | – | 90% | 100% | 80% | – | Pre-emergence action against VIOTR in % ([6]; dosage 20 g/ha): 90%; Post-emergence action against ABUTH in % ([16]; dosage 5 g/ha): 90%; Post-emergence action against PHBPU in % ([9]; dosage 5 g/ha): 80%; Post-emergence action against VIOTR in % [11]: 80%
8 | Cc1nnc(NC(=O)c2ccc(C(F)(F)F)c(C(=O)NCC3CC3)c2Br)o1 [Example 6-161] | 90% | 100% | 100% | 100% | 100% | 100% | 80% | – | 90% | 80% | – | 100% | 90% | 100% | 100% | 100% | 90% | – | 90% | Pre-emergence action against ECHCG in % ([3]; 20 g/ha): 80%; Post-emergence action against ECHCG in % ([8]; dosage 5 g/ha): 90%
9 | Cc1nnc(NC(=O)c2ccc(C(F)(F)F)c(C(=O)NC(C)C3CC3)c2Cl)o1 (centres unmarked) [Example 6-254] | 90% | 100% | 100% | 100% | 100% | 80% | 90% | 100% | 90% | 80% | 80% | 100% | – | 100% | 100% | 80% | 80% | 80% | 80% | Pre-emergence action against AVEFA in % [17]: 90%; Pre-emergence action against ECHCG in % ([3]; 20 g/ha): 90%; Pre-emergence action against VERPE in % [15]: 100%; Pre-emergence action against DIGSA in % ([7]; dosage 20 g/ha): 90%; Post-emergence action against DIGSA in % ([20]; 5 g/ha): 80%; Post-emergence action against DIGSA [20]: 90%
